Laboratory results as given in PMC4512978, “Synthesis and evaluation in rats of homologous series of [^18F]-labeled dopamine D2/3 receptor agonists based on the 2-aminomethylchroman scaffold as potential PET tracers” (EJNMMI Research, 2015).

System: D2/3R
Test: Kinetic analysis of PET data (1TCM, 2TCM, Logan, SRTM);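 as to 2TCM BPND change relative to control: Raclopride 1 mg/kg intravenous pretreatment versus saline controls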;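 as to SRTM BPND change relative to control: Raclopride 1 mg/kg intravenous pretreatment versus saline controls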
Type: in vivo, Sprague-Dawley rats
Set-up: key to SRTM BPND / 1TCM BPND / 2TCM BPND (VT-based): BPND = VT(target)/VT(cerebellum) − 1 (or SRTM, cerebellum reference); SRTM BPND change relative to control / 1TCM BPND change relative to control / 2TCM BPND change relative to control / Logan BPND change relative to control: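 Raclopride 1 mg/kg intravenous pretreatment versus saline controls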; 1TCM VT / 2TCM VT: unit not given here
Protocol: Kinetic analysis is described using the nomenclature proposed by Innis et al.. ROI TACs of [^18F]FEt-AMC13 were analyzed with one-tissue and two-tissue compartmental models of reversible binding (1TCM and 2TCM, respectively) to obtain individual rate constants. From these, the regional distribution volumes (VT) were calculated and compared to those obtained with Logan graphical analysis. Binding potentials (BPND) were calculated from the distribution ratios as VT (target) / VT (cerebellum) – 1, or estimated with the simplified reference tissue model (SRTM) using the cerebellum as reference region.
Metabolite-corrected plasma-derived arterial input function and whole blood time-activity curve were used for Logan, 1TCM, and 2TCM analyses. Fractional cerebral blood volume was set to 3.6 % [27]. For one rat in the raclopride-treated group, no input curves could be obtained; therefore, its PET data were only analyzed with SRTM.
Degree of D2/3R-specific binding of the tracers was characterized by BPND (as given above) or the specific binding ratio (SBR) given as target region activity/cerebellar activity - 1. Both were calculated under control conditions and in response to the raclopride challenge.

[1] = Hypothalamus, raclopride, listed as [18F]FEt-AMC13
[2] = Olfactory bulbs, raclopride, listed as [18F]FEt-AMC13

1TCM VT (Hypothalamus, raclopride): 5.38±0.38
2TCM VT (Hypothalamus, raclopride): 5.83±0.34
Logan VT (Hypothalamus, raclopride): 5.76±0.26
1TCM VT (Olfactory bulbs, control): 4.99±0.62
2TCM VT (Olfactory bulbs, control): 5.45±0.52
Logan VT (Olfactory bulbs, control): 5.64±0.57
1TCM VT (Olfactory bulbs, raclopride): 4.36±0.55
2TCM VT (Olfactory bulbs, raclopride): 5.02±0.61
Logan VT (Olfactory bulbs, raclopride): 5.14±0.43
1TCM VT (Pituitary, control): 6.16±0.35
2TCM VT (Pituitary, control): 6.89±0.32
Logan VT (Pituitary, control): 7.15±0.49
1TCM VT (Pituitary, raclopride): 5.33±0.88
2TCM VT (Pituitary, raclopride): 6.34±0.82
Logan VT (Pituitary, raclopride): 6.53±0.44
SMILES: Oc1ccc2c(c1)O[C@@H](CNCc1ccc(OCC[18F])cc1)CC2 [[^18F]FEt-AMC13]
2TCM k4 (Hypothalamus, control rat D): 0.09 ± 0.01 min⁻¹
1TCM BPND (Hypothalamus, raclopride): 0.22±0.04
1TCM BPND change relative to control (Hypothalamus, raclopride): -14%
2TCM BPND (VT-based) (Hypothalamus, raclopride): 0.18 ± 0.06
2TCM BPND change relative to control (Hypothalamus, raclopride): −19%
Logan BPND (Hypothalamus, raclopride): 0.16±0.04
Logan BPND change relative to control (Hypothalamus, raclopride): -25%
SRTM BPND (Hypothalamus, raclopride): 0.16 ± 0.04
SRTM BPND change relative to control (Hypothalamus, raclopride): −23%
2TCM BPND (VT-based) [1]: 0.18±0.06
2TCM BPND change relative to control [1]: -19%
SRTM BPND [1]: 0.16±0.04
SRTM BPND change relative to control [1]: –23%
1TCM BPND (Olfactory bulbs, control): 0.07±0.16
2TCM BPND (VT-based) (Olfactory bulbs, control): 0.08 ± 0.13
Logan BPND (Olfactory bulbs, control): 0.12±0.12
SRTM BPND (Olfactory bulbs, control): 0.10 ± 0.13
1TCM K1 (Olfactory bulbs, control rat A): 0.55 ± 0.05 mL/g/min
1TCM k2 (Olfactory bulbs, control rat A): 0.12 ± 0.02 min⁻¹
2TCM K1 (Olfactory bulbs, control rat A): 3.58 ± 1.65 mL/g/min
2TCM k2 (Olfactory bulbs, control rat A): 9.75 ± 3.75 min⁻¹
2TCM k3 (Olfactory bulbs, control rat A): 1.20 ± 2.96 min⁻¹
2TCM k4 (Olfactory bulbs, control rat A): 0.09 ± 7.03 min⁻¹
1TCM K1 (Olfactory bulbs, control rat B): 0.49 ± 0.02 mL/g/min
1TCM k2 (Olfactory bulbs, control rat B): 0.08 ± 0.01 min⁻¹
2TCM K1 (Olfactory bulbs, control rat B): 0.63 ± 0.07 mL/g/min
2TCM k2 (Olfactory bulbs, control rat B): 0.47 ± 0.34 min⁻¹
2TCM k3 (Olfactory bulbs, control rat B): 0.69 ± 0.56 min⁻¹
2TCM k4 (Olfactory bulbs, control rat B): 0.20 ± 0.04 min⁻¹
1TCM K1 (Olfactory bulbs, control rat C): 0.44 ± 0.01 mL/g/min
1TCM k2 (Olfactory bulbs, control rat C): 0.09 ± 0.005 min⁻¹
2TCM K1 (Olfactory bulbs, control rat C): 0.59 ± 0.10 mL/g/min
2TCM k2 (Olfactory bulbs, control rat C): 0.68 ± 0.93 min⁻¹
2TCM k3 (Olfactory bulbs, control rat C): 1.07 ± 3.21 min⁻¹
2TCM k4 (Olfactory bulbs, control rat C): 0.23 ± 3.75 min⁻¹
1TCM K1 (Olfactory bulbs, control rat D): 0.50 ± 0.03 mL/g/min
1TCM k2 (Olfactory bulbs, control rat D): 0.10 ± 0.01 min⁻¹
2TCM K1 (Olfactory bulbs, control rat D): 1.08 ± 0.20 mL/g/min
2TCM k2 (Olfactory bulbs, control rat D): 1.82 ± 0.90 min⁻¹
2TCM k3 (Olfactory bulbs, control rat D): 0.92 ± 0.31 min⁻¹
2TCM k4 (Olfactory bulbs, control rat D): 0.11 ± 0.01 min⁻¹
1TCM BPND (Olfactory bulbs, raclopride): -0.02±0.03
1TCM BPND change relative to control (Olfactory bulbs, raclopride): -127%
2TCM BPND (VT-based) (Olfactory bulbs, raclopride): 0.01 ± 0.04
2TCM BPND change relative to control (Olfactory bulbs, raclopride): −88%
Logan BPND (Olfactory bulbs, raclopride): 0.03±0.03
Logan BPND change relative to control (Olfactory bulbs, raclopride): -74%
SRTM BPND (Olfactory bulbs, raclopride): 0.11 ± 0.05
SRTM BPND change relative to control (Olfactory bulbs, raclopride): +10%
2TCM BPND (VT-based) [2]: 0.01±0.04
2TCM BPND change relative to control [2]: -88%
SRTM BPND [2]: 0.11±0.05
1TCM BPND (Pituitary, control): 0.32±0.05
2TCM BPND (VT-based) (Pituitary, control): 0.36 ± 0.07
Logan BPND (Pituitary, control): 0.42±0.05
SRTM BPND (Pituitary, control): 0.71 ± 0.32
1TCM K1 (Pituitary, control rat A): 0.52 ± 0.05 mL/g/min
1TCM k2 (Pituitary, control rat A): 0.08 ± 0.02 min⁻¹
2TCM K1 (Pituitary, control rat A): 6.16 ± 6.57 mL/g/min
2TCM k2 (Pituitary, control rat A): 16.8 ± 16.5 min⁻¹
2TCM k3 (Pituitary, control rat A): 1.11 ± 15.04 min⁻¹
2TCM k4 (Pituitary, control rat A): 0.06 ± 22.82 min⁻¹
1TCM K1 (Pituitary, control rat B): 0.63 ± 0.04 mL/g/min
1TCM k2 (Pituitary, control rat B): 0.10 ± 0.01 min⁻¹
2TCM K1 (Pituitary, control rat B): 1.23 ± 0.31 mL/g/min
2TCM k2 (Pituitary, control rat B): 1.62 ± 0.42 min⁻¹
2TCM k3 (Pituitary, control rat B): 0.99 ± 1.42 min⁻¹
2TCM k4 (Pituitary, control rat B): 0.12 ± 2.70 min⁻¹
1TCM K1 (Pituitary, control rat C): 0.52 ± 0.02 mL/g/min
1TCM k2 (Pituitary, control rat C): 0.08 ± 0.01 min⁻¹
2TCM K1 (Pituitary, control rat C): 0.97 ± 0.34 mL/g/min
2TCM k2 (Pituitary, control rat C): 1.54 ± 0.73 min⁻¹
2TCM k3 (Pituitary, control rat C): 1.23 ± 2.61 min⁻¹
2TCM k4 (Pituitary, control rat C): 0.13 ± 4.28 min⁻¹
1TCM K1 (Pituitary, control rat D): 0.67 ± 0.05 mL/g/min
1TCM k2 (Pituitary, control rat D): 0.12 ± 0.02 min⁻¹
2TCM K1 (Pituitary, control rat D): 1.38 ± 0.24 mL/g/min
2TCM k2 (Pituitary, control rat D): 1.48 ± 0.20 min⁻¹
2TCM k3 (Pituitary, control rat D): 0.69 ± 0.58 min⁻¹
2TCM k4 (Pituitary, control rat D): 0.11 ± 1.34 min⁻¹
1TCM BPND (Pituitary, raclopride): 0.18±0.05
1TCM BPND change relative to control (Pituitary, raclopride): -38%
2TCM BPND change relative to control (Pituitary, raclopride): −23%
Logan BPND change relative to control (Pituitary, raclopride): -26%
